From patent US20240245694A1, “Tricyclic Compounds and their Uses” (Novartis AG, priority 2022, published 2024)

Assays:
[1] = molecular target: WRN helicase (core helicase motif aa N517-P1238) (Homo sapiens (Human), UniProt Q14191); assay: WRN ATPase assay (ADP-Glo), DNA dependent ATP hydrolysis; type: biochemical; conditions: 3 hours pre-incubation, 300 micromolar ATP, FLAP26 ssDNA; geometric means of at least 2 determinations
Excerpt: An ATPase assay was set up to measure the DNA dependent ATP hydrolysis activity of WRN helicase. This assay was used also to assess the inhibition properties of compounds of the invention on DNA dependent WRN ATPase activity.
The core helicase motif of the WRN protein (aa N517-P1238) was produced for this assay (protein production as described above). A 45 oligonucleotide sequence called “FLAP26” as described by Brosh et al., 2009, DOI: 10.1074/jbc.M111446200 ([…]; SEQ ID NO: 2) was purchased from IDT (Integrated DNA Technologies, Leuven, Belgium) and used as single strand DNA substrate. The ADP-Glo assay kit (Promega, Madison, WI) allowing the quantification of ADP produced in ATP hydrolysis reactions was used for setting up this assay. Time course experiments were first performed in order to determine the best enzymatic assay conditions (including buffer conditions, reaction time and concentrations of protein, ATP and DNA substrates). A typical reaction consists of 10 nM WRN protein, 0.2 nM FLAP26, and 300 micromolar ATP in the following assay buffer: 30 mM Tris pH7.5, 2 mM MgCl2, 0.02% BSA, 50 mM NaCl, 0.1% pluronic F127 prepared in DNAse free water.
To evaluate the inhibition properties of compounds of the invention, serial dilutions were prepared in DMSO (10 half log dilutions from a 10 mM DMSO solution). 50 nanoliters of each concentration was pre-incubated for 3 hours in a 384 small volume assay plate (Greiner #784075) with 2.5 microliters of a 20 nM WRN helicase protein in assay buffer with 600 micromolar ATP. Control wells were included with a “high control” (no inhibition), containing DMSO with no test compound, and “low controls” (maximal inhibition), containing buffer without protein. The reaction was started by addition of 2.5 microliters of FLAP26 at 0.4 nM and incubated for 30 minutes at room temperature. The reaction was stopped with the addition of 5 microliters of the first ADP-Glo reagent and incubated for one hour to remove the excess amount of ATP. Afterwards, 10 microliters of ATP detection reagent was added and incubated for an additional hour before reading. Luminescence output was recorded using Tecan 1000 reader, with 5 minutes delay before reading. Each concentration of compound was tested in duplicates in the assay plate.
Data analysis was carried out using an in-house developed software (Novartis Helios software application, Novartis Institutes for BioMedical Research, unpublished) using the methods described by Formenko et al., 2006, DOI: 10.1016/j.cmpb.2006.01.008. Following normalization of activity values for the wells to % inhibition (% inhibition=[(high control-sample)/(high control-low control)]×100), IC50 fitting was carried out from the duplicate determinations present on each plate according to [4]. Data analysis can also be carried out using commercially available software designed to derive IC50 values using 4-parameter fits (e.g. GraphPad Prism, XL fit). The reported IC50 values are the geometrical means of at least 2 independent replicates.

SW48 cells = assay: Proliferation assay SW48 (CellTiterGlo, 96 hours); type: cell-based; conditions: Homo sapiens
Excerpt: (§1) The colon carcinoma cell lines SW48 (RRID: CVCL_1724), HCT 116 (RRID: CVCL_0291) and SNU-407 (RRID: CVCL_5058) were obtained from ATCC. The WRN-knockdown insensitive colon carcinoma cell line DLD-1 (RRID: CVCL_0248) was obtained from the Korean Cell Line Bank (KCLB), and used to generate a derivative in which the endogenous WRN gene copies were knocked out by CRISPR-mediated editing using standard CRISPR methods. The resulting cell line, DLD1-WRN-KO, was used to assess potential off-target compound effects.
(§2) SW48, SNU-407 and DLD1-WRN-KO cells were cultured in growth medium composed of RPMI-1640 (Amimed Cat #1-41F22-1), 2 mM L-Glutamine (Amimed Cat #5-10K50), 10 mM HEPES (Gibco Cat #15630-056), 1 mM sodium pyruvate (Amimed Cat #5-60F00-H), 1× Penicillin-Streptomycin (Amimed Cat #4-01F00-H) and 10% fetal calf serum (Amimed Cat #2-01F30-G, Lot #LB11566P). HCT 116 cells were cultured in growth medium composed of McCoys 5A (Amimed catalog #1-18F01-1), 2 mM L-Glutamine (Amimed Cat #5-10K50), 1× Penicillin-Streptomycin (Amimed Cat #4-01F00-H) and 10% fetal calf serum (Amimed Cat #2-01F30-G, Lot #LB11566P). All cells were maintained at 37° C. in a humidified 5% CO2 incubator.
(§3) Following filtration through a Steriflip-NY 20 μm filter (Millipore Cat #SCNY00020), trypsinized cells were seeded in 100 microliters growth medium at 2′000 (SW48) or 1′500 (SNU-407, DLD1-WRN-KO, HCT 116) cells/well into white, clear-bottom 96-well plates (Costar Cat #3903). Three replicate plates were prepared for each compound treatment condition. In addition, one plate (termed “day 0”) was prepared to quantify the number of viable cells at the time of compound addition. Following overnight incubation at 37° C. in a humidified 5% CO2 atmosphere, eight 3-fold serial dilutions of a given compound stock (obtained at a concentration of 10 mM in DMSO and stored at 4° C.) were dispensed directly into each of the triplicate assay plates using a HP 300D non-contact Digital Dispenser (TECAN). The final concentration of DMSO was normalized to 0.1% in all wells. 96 hours after compound addition, cellular ATP levels as a surrogate for cell viability was assessed following addition of 50 microliters CellTiterGlo (Promega Cat #G7573) reagent and luminescence quantification on a MPLEX multi-mode plate-reader (TECAN) following a 10 minute incubation at room temperature. The number of viable cells in the “day 0” plate were quantified identically on the day of compound addition.
(§4) For data analysis, the assay background signal that was determined in wells containing medium, but no cells, was subtracted from all other data points prior to further calculations. The extent of growth inhibition and potential cell kill was assessed by comparing the ATP levels (measured using CellTiterGlo, Promega) in compound-treated cells with those present at the time of compound addition. To this end, the following conditional concept was programmatically applied in HELIOS, an in-house software applying a multi-step decision tree to arrive at optimal concentration response curve fits (Gubler et al, SLAS DOI: 10.1177/2472555217752140) to calculate % growth (% G) for each compound-treated well: % G=(T−V0)/V0))*100 when T<V0, and % G=(T−V0)/(V−V0)))*100 when T>V0, where V0 is the viability level at time of compound addition, while V and T represent vehicle-control and compound-treated viability levels, respectively, at the end of the compound incubation. 100%, 0% and −100% signify absence of growth inhibition, growth stasis, and complete cell kill, respectively. Compound concentrations leading to half-maximal growth inhibition (G150) and residual cell viability at the highest tested compound concentration (Data (cmax), expressed in percent) were routinely calculated. Data analysis can also be carried out using commercially available software designed to derive IC50 values using 4-parameter fits (e.g. GraphPad Prism, XL fit). […]

DLD1-WRN-KO cells = assay: Proliferation assay DLD1-WRN-KO (CellTiterGlo, 96 hours), off-target effects; type: cell-based; conditions: Homo sapiens
Excerpt: as §1, §2, §3, §4

Chain of WRN helicase (core helicase motif aa N517-P1238) (Q14191 517-1238): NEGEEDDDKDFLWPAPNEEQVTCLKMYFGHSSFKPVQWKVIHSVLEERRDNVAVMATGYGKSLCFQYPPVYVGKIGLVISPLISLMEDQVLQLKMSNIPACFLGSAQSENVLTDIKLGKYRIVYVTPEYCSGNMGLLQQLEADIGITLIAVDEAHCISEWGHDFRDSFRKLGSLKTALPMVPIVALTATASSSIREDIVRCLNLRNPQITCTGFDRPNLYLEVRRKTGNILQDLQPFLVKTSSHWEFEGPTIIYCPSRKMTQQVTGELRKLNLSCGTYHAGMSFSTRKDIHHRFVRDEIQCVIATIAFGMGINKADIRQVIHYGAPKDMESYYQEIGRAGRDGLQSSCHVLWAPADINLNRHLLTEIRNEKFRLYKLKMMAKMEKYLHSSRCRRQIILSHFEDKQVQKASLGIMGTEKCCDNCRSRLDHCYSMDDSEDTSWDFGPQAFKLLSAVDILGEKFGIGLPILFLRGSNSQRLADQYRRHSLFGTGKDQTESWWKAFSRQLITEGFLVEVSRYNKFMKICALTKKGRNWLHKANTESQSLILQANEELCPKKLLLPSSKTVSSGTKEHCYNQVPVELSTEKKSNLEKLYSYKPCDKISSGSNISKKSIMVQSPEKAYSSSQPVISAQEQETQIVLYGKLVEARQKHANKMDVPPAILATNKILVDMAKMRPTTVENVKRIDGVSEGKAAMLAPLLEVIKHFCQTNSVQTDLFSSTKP

With C[C@@H]1C[C@H](C(=O)Nc2ccc(C(F)(F)F)cc2Cl)n2c1c(N1CCN(C(=O)c3ncc4c(c3O)OCC4)CC1)c(=O)n1nc(C3=CCOCC3)nc21 [Example 5A, (7R,9R)—N-(2-chloro-4-(trifluoromethyl)phenyl)-2-(3,6-dihydro-2H-pyran-4-yl)-6-(4-(7-hydroxy-2,3-dihydrofuro[3,2-c]pyridine-6-carbonyl)piperazin-1-yl)-7-methyl-5-oxo-5,7,8,9-tetrahydropyrrolo[1,2-c][1,2,4]triazolo[1,5-a]pyrimidine-9-carboxamide] the IC50 [1] was 20 nM, the GI50 (SW48 cells) was 30 nM and the GI50 (DLD1-WRN-KO cells) was > 10000 nM.

In the case of C[C@H]1C[C@@H](C(=O)Nc2ccc(C(F)(F)F)cc2Cl)n2c1c(N1CCN(C(=O)c3ncc4c(c3O)OCC4)CC1)c(=O)n1nc(C3=CCOCC3)nc21 [Example 5B, (7S,9S)—N-(2-chloro-4-(trifluoromethyl)phenyl)-2-(3,6-dihydro-2H-pyran-4-yl)-6-(4-(7-hydroxy-2,3-dihydrofuro[3,2-c]pyridine-6-carbonyl)piperazin-1-yl)-7-methyl-5-oxo-5,7,8,9-tetrahydropyrrolo[1,2-c][1,2,4]triazolo[1,5-a]pyrimidine-9-carboxamide], the IC50 [1] is reported as 6000 nM, the GI50 (SW48 cells) is reported as 5000 nM and the GI50 (DLD1-WRN-KO cells) is reported as > 10000 nM.

In the case of C[C@@H]1C[C@H](C(=O)Nc2ccc(C(F)(F)F)cc2Cl)n2c1c(N1CCN(C(=O)c3nccc(F)c3O)CC1)c(=O)n1nc(C3=CCOCC3)nc21 [Example 6A, (7R,9R)—N-(2-chloro-4-(trifluoromethyl)phenyl)-2-(3,6-dihydro-2H-pyran-4-yl)-6-(4-(4-fluoro-3-hydroxypicolinoyl)piperazin-1-yl)-7-methyl-5-oxo-5,7,8,9-tetrahydropyrrolo[1,2-c][1,2,4]triazolo[1,5-a]pyrimidine-9-carboxamide], the IC50 [1] is reported as 20 nM, the GI50 (SW48 cells) is reported as 20 nM and the GI50 (DLD1-WRN-KO cells) is reported as > 10000 nM.

C[C@H]1C[C@@H](C(=O)Nc2ccc(C(F)(F)F)cc2Cl)n2c1c(N1CCN(C(=O)c3nccc(F)c3O)CC1)c(=O)n1nc(C3=CCOCC3)nc21 [Example 6B, (7S,9S)—N-(2-chloro-4-(trifluoromethyl)phenyl)-2-(3,6-dihydro-2H-pyran-4-yl)-6-(4-(4-fluoro-3-hydroxypicolinoyl)piperazin-1-yl)-7-methyl-5-oxo-5,7,8,9-tetrahydropyrrolo[1,2-c][1,2,4]triazolo[1,5-a]pyrimidine-9-carboxamide] was tested, and the IC50 [1] was 2000 nM, the GI50 (SW48 cells) was 3000 nM and the GI50 (DLD1-WRN-KO cells) was > 10000 nM.

In the case of C[C@@H]1C[C@H](C(=O)Nc2ccc(C(F)(F)F)cc2Cl)n2c1c(N1CCN(C(=O)c3nn(C)c(=O)[nH]3)CC1)c(=O)n1nc(C3=CCOCC3)nc21 [Example 7, (7R,9R)—N-(2-chloro-4-(trifluoromethyl)phenyl)-2-(3,6-dihydro-2H-pyran-4-yl)-7-methyl-6-(4-(1-methyl-5-oxo-4,5-dihydro-1H-1,2,4-triazole-3-carbonyl)piperazin-1-yl)-5-oxo-5,7,8,9-tetrahydropyrrolo[1,2-c][1,2,4]triazolo[1,5-a]pyrimidine-9-carboxamide], the IC50 [1] is reported as 50 nM, the GI50 (SW48 cells) is reported as 300 nM and the GI50 (DLD1-WRN-KO cells) is reported as > 10000 nM.

With Cc1cc(F)c(O)c(C(=O)N2CCN(c3c4n(c5nc(C6=CCOCC6)nn5c3=O)[C@@H](C(=O)Nc3ccc(C(F)(F)F)cc3Cl)C[C@H]4C)CC2)n1 [Example 8, (7R,9R)—N-(2-chloro-4-(trifluoromethyl)phenyl)-2-(3,6-dihydro-2H-pyran-4-yl)-6-(4-(4-fluoro-3-hydroxy-6-methylpicolinoyl)piperazin-1-yl)-7-methyl-5-oxo-5,7,8,9-tetrahydropyrrolo[1,2-c][1,2,4]triazolo[1,5-a]pyrimidine-9-carboxamide] the IC50 [1] was 20 nM, the GI50 (SW48 cells) was 20 nM and the GI50 (DLD1-WRN-KO cells) was > 10000 nM.
